Data taken from ChEMBL document CHEMBL1933036, “Chromenones as potent bradykinin B1 antagonists” (Bioorg Med Chem Lett, 2012).

Key:
B1 bradykinin receptor [1] = target: T1, B1 bradykinin receptor (Oryctolagus cuniculus, UniProt P48748); test: Antagonist activity at rabbit B1 bradykinin receptor expressed in CHO cells; assay type: functional, cell-based
T1 sequence (P48748 whole entry): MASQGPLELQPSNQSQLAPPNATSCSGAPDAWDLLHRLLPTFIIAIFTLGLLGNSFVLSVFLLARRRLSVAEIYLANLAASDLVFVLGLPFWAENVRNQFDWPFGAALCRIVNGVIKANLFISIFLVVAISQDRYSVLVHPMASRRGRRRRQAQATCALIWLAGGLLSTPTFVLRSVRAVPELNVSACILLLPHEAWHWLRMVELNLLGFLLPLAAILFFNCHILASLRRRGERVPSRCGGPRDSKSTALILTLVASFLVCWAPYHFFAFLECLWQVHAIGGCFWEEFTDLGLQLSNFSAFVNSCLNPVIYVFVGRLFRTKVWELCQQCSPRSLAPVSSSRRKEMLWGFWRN

B1 bradykinin receptor [2] = target: T2, B1 bradykinin receptor (Homo sapiens, UniProt P46663); test: Antagonist activity at human B1 bradykinin receptor expressed in CHO cells by aqueorin-based calcium flux assay; assay type: functional, cell-based
T2 sequence (P46663 whole entry): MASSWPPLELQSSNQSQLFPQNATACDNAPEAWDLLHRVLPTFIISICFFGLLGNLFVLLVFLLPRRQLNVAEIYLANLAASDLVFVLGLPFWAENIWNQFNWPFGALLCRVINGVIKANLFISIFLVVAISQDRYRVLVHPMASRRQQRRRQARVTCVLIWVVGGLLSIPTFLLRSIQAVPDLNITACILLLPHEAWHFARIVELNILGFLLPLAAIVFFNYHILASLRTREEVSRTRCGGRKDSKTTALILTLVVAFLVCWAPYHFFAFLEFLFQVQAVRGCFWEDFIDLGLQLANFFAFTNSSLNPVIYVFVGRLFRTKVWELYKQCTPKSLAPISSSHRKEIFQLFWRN

B1 bradykinin receptor [3] = target: T2, B1 bradykinin receptor; test: Binding affinity to human B1 bradykinin receptor
[4] = Clearance in rat at 2 mg/kg, iv; assay type: ADME, organism-based; parameters: dose 2 mg/kg, route intravenous; conditions: in vivo
[5] = Volume of distribution at steady state in rat at 2 mg/kg, iv; assay type: ADME, organism-based; parameters: dose 2 mg/kg, route intravenous; conditions: in vivo, read-out: Vdss
[6] = Half life in rat at 2 mg/kg, iv; assay type: ADME, organism-based; parameters: dose 2 mg/kg, route intravenous; conditions: in vivo
[7] = Oral bioavailability in rat at 5 mg/kg; assay type: ADME, organism-based; conditions: in vivo
Oryctolagus cuniculus = test: Analgesic activity in New Zealand white rabbit mechanical hyperalgesia model assessed as reduction in carrageenan-induced paw withdrawal at 10 mg/kg, sc administered 60 mins before carrageenan challenge measured after 3 hrs; assay type: functional; parameters: scale not given: the % may be the effect or the level left; conditions: route subcutaneous
[8] = Plasma concentration in New Zealand white rabbit carrageenan-induced mechanical hyperalgesia model at 10 mg/kg, sc administered 60 mins before carrageenan challenge measured after 3 hrs; assay type: ADME, organism-based, Oryctolagus cuniculus; parameters: dose 10 mg/kg, route subcutaneous
[9] = Oral bioavailability in rat at 2 mg/kg; assay type: ADME, organism-based; conditions: in vivo

Row | IC50 (B1 bradykinin receptor [1]) [nM] | IC50 (B1 bradykinin receptor [2]) [nM] | Ki (B1 bradykinin receptor [3]) [nM] | SMILES | other results
1 | 476 | 112 | – | O=C(N[C@@H]1CCCc2cc(CN3CCCCC3)ccc21)c1cccc(-c2coc3ccccc3c2=O)c1 | –
2 | > 800 | 799 | – | O=C(N[C@@H]1CCCc2cc(CN3CCCCC3)ccc21)c1cccc(-c2coc3cc(Cl)ccc3c2=O)c1 | –
3 | 393 | 78 | 398 | O=C(N[C@@H]1CCCc2cc(CN3CCCCC3)ccc21)c1cccc(-c2coc3ccc(F)cc3c2=O)c1 | –
4 | 98 | 7 | 43 | Cc1nn(-c2ccc(C(=O)N[C@H]3CCCc4cc(CN5CCCCC5)ccc43)cc2)c(=O)c2ccccc12 | –
5 | > 800 | 188 | 322 | O=C(N[C@@H]1CCCc2cc(CN3CCCCC3)ccc21)c1cccc(-c2coc3c(Cl)cccc3c2=O)c1 | –
6 | 248 | 17 | 29 | O=C(N[C@@H]1CCCc2cc(CN3CCCCC3)ccc21)c1cccc(-c2coc3cccc(Cl)c3c2=O)c1 | –
7 | 24 | 12 | 17 | O=C(N[C@H]1CCCc2cc(CN3CCCCC3)ccc21)c1ccc(-c2coc3cccc(F)c3c2=O)cc1 | clearance [4]: 25.5 mL/min/kg; Vd [5]: 8.83 L/kg; half-life [6]: 3.8 h; bioavailability [9]: 27.9%
8 | > 800 | 264 | 42 | O=C(N[C@H]1CCCc2cc(CN3CCCCC3)ccc21)c1ccc(-c2coc3cc(Cl)ccc3c2=O)cc1 | –

Continued, molecule first:

Row | SMILES | IC50 (B1 bradykinin receptor [1]) [nM] | IC50 (B1 bradykinin receptor [2]) [nM] | Ki (B1 bradykinin receptor [3]) [nM] | other results
9 | O=C(N[C@@H]1CCCc2cc(CN3CCCCC3)ccc21)c1cccc(-c2coc3ccc(Cl)cc3c2=O)c1 | > 160 | 279 | 767 | –
10 | O=C(N[C@H]1CCCc2cc(CN3CCCCC3)ccc21)c1ccc(-c2coc3ccc(Cl)cc3c2=O)cc1 | > 4000 | > 4000 | 1620 | –
11 | O=C(N[C@H]1CCCc2cc(CN3CCCCC3)ccc21)c1ccc(-c2coc3cccc(Cl)c3c2=O)cc1 | 30 | 4 | 4 | clearance [4]: 17.7 mL/min/kg; Vd [5]: 6.67 L/kg; half-life [6]: 4.5 h; bioavailability [7]: 43.6%; Activity (Oryctolagus cuniculus): 65%; concentration at 3 h [8]: 379 nM
12 | O=C(N[C@H]1CCCc2cc(CN3CCCCC3)ccc21)c1ccc(-c2coc3ccccc3c2=O)cc1 | 122 | – | – | –
13 | Cc1cccc2occ(-c3ccc(C(=O)N[C@H]4CCCc5cc(CN6CCCCC6)ccc54)cc3)c(=O)c12 | 139 | 66 | 15 | –
14 | Cc1nn(-c2cccc(C(=O)N[C@@H]3CCCc4cc(CN5CCCCC5)ccc43)c2)c(=O)c2ccccc12 | > 6460 | 3400 | – | –
15 | O=C(N[C@H]1CCCc2cc(CN3CCCCC3)ccc21)c1ccc(-c2coc3c(Cl)cccc3c2=O)cc1 | > 4000 | 186 | 481 | –
